Measured values published in article PMC4791841, “Nanomolar Inhibitors of Trypanosoma brucei RNA Triphosphatase” (mBio, 2016).
Read-outs that look alike come from different tables or passages of the source.

How the values were obtained:
MimiCE = target: T1, MimiCE (Acanthamoeba polyphaga mimivirus, UniProt Q5UQX1); experiment: biochemical; assay type: biochemical; conditions: for IC50/IC50 TbCet1, MimiCE: ratio in parentheses;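 as to all read-outs here: mimivirus capping enzyme triphosphatase ATPase reaction, radiolabeled ATP hydrolysis to Pi quantified by TLC after 10 min, normalized to no-inhibitor control with 5% DMSO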
T1 construct: the N-terminal RTPase domain (amino acids [aa] 1 to 237) of mimivirus capping enzyme (MimiCE); HisSmt3 (N, cleaved yes); made in house; host or cells: Escherichia coli
T1 sequence (Q5UQX1 1-237): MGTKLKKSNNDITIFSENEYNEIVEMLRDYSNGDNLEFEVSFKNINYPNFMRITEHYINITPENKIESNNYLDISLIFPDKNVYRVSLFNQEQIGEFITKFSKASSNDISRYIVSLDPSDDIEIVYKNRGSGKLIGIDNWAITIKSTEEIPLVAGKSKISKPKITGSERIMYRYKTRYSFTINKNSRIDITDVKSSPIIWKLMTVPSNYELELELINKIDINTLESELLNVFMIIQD

SceCet1 = target: T2, SceCet1 (Saccharomyces cerevisiae, UniProt O13297); experiment: TLC assay for 32Pi release from [γ-32P]ATP, SceCet1; assay type: biochemical; conditions: for IC50/IC50 TbCet1, SceCet1: ratio in parentheses
T2 construct: C-terminal catalytic domain (aa 241 to 539) of S. cerevisiae RTPase (SceCet1); made in house; host or cells: Escherichia coli
T2 sequence (O13297 241-539): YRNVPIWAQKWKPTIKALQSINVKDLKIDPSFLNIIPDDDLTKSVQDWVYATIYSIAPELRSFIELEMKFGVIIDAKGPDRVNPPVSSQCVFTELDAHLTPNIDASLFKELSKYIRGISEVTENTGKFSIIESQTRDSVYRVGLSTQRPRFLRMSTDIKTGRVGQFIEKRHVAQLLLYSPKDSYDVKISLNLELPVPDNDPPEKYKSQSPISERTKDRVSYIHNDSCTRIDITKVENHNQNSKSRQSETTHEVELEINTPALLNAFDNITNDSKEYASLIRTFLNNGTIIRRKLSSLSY

CthTTM = target: T3, CthTTM (Acetivibrio thermocellus, UniProt A3DIJ8); experiment: TLC assay for 32Pi release from [γ-32P]ATP, CthTTM; assay type: biochemical, Clostridium thermocellum; conditions: for IC50/IC50 TbCet1, CthTTM: ratio in parentheses
T3 sequence (A3DIJ8 1-156): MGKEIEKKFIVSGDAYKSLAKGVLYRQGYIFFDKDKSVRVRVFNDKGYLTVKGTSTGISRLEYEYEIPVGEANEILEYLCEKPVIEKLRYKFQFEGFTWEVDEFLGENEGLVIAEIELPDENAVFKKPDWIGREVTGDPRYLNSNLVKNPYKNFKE

Lef4 = target: T4, Lef4 (Autographa californica nuclear polyhedrosis virus, UniProt P41477); experiment: TLC assay for 32Pi release from [γ-32P]ATP, Lef4; assay type: biochemical, Autographa californica nucleopolyhedrovirus (AcNPV); conditions: for IC50: 50 nM Lef4, 37°C, read-out: IC50 Lef4; for IC50/IC50 TbCet1, Lef4: ratio in parentheses;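 as to all read-outs here: Lef4 RNA triphosphatase cleaving radiolabelled ATP over 10 min at 37°C, hydrolysis set relative to inhibitor-free 5% DMSO controls, comparisons made against TbCet1 tested the same way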
T4 construct: the N-terminal RTPase domain (aa 1 to 236) of AcNPV Lef4 capping enzyme; HisSmt3 (N, cleaved yes); made in house; host or cells: Escherichia coli
T4 sequence (P41477 1-236): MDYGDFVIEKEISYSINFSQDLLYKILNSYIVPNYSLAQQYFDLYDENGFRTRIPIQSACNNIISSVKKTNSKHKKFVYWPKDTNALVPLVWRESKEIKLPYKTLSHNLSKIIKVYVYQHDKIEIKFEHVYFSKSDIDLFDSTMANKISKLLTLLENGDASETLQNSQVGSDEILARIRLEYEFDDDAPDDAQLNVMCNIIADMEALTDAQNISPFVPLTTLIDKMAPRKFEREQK

TbCet1 = target: T5, TbCet1 (Trypanosoma brucei brucei, UniProt Q582T2); experiment: TLC assay for 32Pi release from [γ-32P]ATP, TbCet1; conditions: for IC50: 2.2 nM TbCet1, 0.2 mM ATP, 2 mM Mn2+, 10 min 37°C
T5 sequence (Q582T2 1-253): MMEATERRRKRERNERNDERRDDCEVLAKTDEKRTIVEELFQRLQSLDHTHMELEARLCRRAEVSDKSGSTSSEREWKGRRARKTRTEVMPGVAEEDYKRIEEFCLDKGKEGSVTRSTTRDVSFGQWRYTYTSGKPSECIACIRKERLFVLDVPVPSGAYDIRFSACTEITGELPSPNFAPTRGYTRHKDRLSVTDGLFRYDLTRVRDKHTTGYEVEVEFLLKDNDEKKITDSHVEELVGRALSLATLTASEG

[1] = read-out: IC50 MimiCE, 7 nM MimiCE, 37°C
[2] = 25 nM SceCet1, 30°C, read-out: IC50 SceCet1
[3] = 500 nM CthTTM, 37°C, read-out: IC50 CthTTM
[4] = read-out: IC50 SceCet1, 25 nM SceCet1, 30°C
[5] = read-out: IC50 CthTTM, 500 nM CthTTM, 37°C
[6] = read-out: IC50 TbCet1 by 32P assay

Row | SMILES | IC50/IC50 TbCet1, MimiCE (MimiCE) | IC50 (MimiCE; [1]) [µM] | IC50 (SceCet1; [2]) [µM] | IC50 (CthTTM; [3]) [µM] | IC50/IC50 TbCet1, CthTTM (CthTTM) | IC50 (Lef4) [µM] | IC50/IC50 TbCet1, Lef4 (Lef4) | IC50 (MimiCE) [µM] | IC50 (TbCet1; IC50 TbCet1 by 32P assay) [µM] | other results
1 | O=C(/C=C/c1ccc(O)c(O)c1)OC1[C@H](OC(=O)/C=C/c2ccc(O)c(O)c2)CC(O)(C(=O)O)C[C@H]1OC(=O)/C=C/c1ccc(O)c(O)c1 (stereo in doubt) [Compound 1D, 3,4,5-Tricaffeoylquinic acid] | 107 | 16 | 10 | 160 | 1,067 | 7.2 | 48 |  |  | fold lower potency against MimiCE than against TbCet1 (MimiCE): 107 fold; fold lower potency against SceCet1 than against TbCet1 (SceCet1): 67 fold; IC50/IC50 TbCet1, SceCet1 (SceCet1): 67; fold lower potency against CthTTM than against TbCet1 (CthTTM): 1,100 fold; fold lower potency against Lef4 than against TbCet1 (Lef4): 48 fold
2 | O=C(Oc1cc(C(=O)O[C@@H]2C[C@@](O)(C(=O)O)C[C@@H](O)[C@@H]2O)cc(O)c1O)c1cc(O)c(O)c(O)c1 [Compound 1C, 5-galloyl-galloylquinic acid] |  |  |  |  |  | 75 | 682 |  |  | IC50 (SceCet1; [4]): > 500 µM; IC50 (CthTTM; [5]): > 500 µM; fold lower potency against Lef4 than against TbCet1 (Lef4): 680 fold; fold more potent as TbCet1 inhibitor than 5-galloylquinic acid (compound 1O) (TbCet1): 1,100 fold
3 | O=C(/C=C/c1ccc(O)c(O)c1)O[C@@H]1C[C@](OC(=O)/C=C/c2ccc(O)c(O)c2)(C(=O)O)C[C@@H](OC(=O)/C=C/c2ccc(O)c(O)c2)[C@H]1O [Compound 1E, 1,3,5-tricaffeoylquinic acid] | 44 |  | 29 | 33 | 174 | 5.6 | 29 | 8.4 | 0.19 | IC50/IC50 TbCet1, SceCet1 (SceCet1): 153
4 | O=C(Oc1cc(C(=O)O[C@@H]2C[C@@](O)(C(=O)O)C[C@@H](OC(=O)c3cc(O)c(O)c(O)c3)[C@@H]2O)cc(O)c1O)c1cc(O)c(O)c(O)c1 [Compound 1F, 3-galloyl,5-galloyl-galloylquinic acid] | 15 | 3.4 |  |  | 95 | 33 | 150 |  |  | IC50 (SceCet1; [4]): > 500 µM; IC50 (CthTTM; [5]): 21 µM
5 | O=C(/C=C/c1ccc(O)c(O)c1)O[C@@H]1C[C@](OC(=O)/C=C/c2ccc(O)c(O)c2)(C(=O)O)C[C@@H](O)[C@H]1O [Compound 1G, 1,3-dicaffeoylquinic acid] | 11 | 3.7 | > 500 | 55 | 162 | 22 | 65 |  |  | 
6 | O=C(/C=C/c1ccc(O)cc1)O[C@@H]1[C@H](O)C[C@@](O)(C(=O)O)C[C@H]1OC(=O)/C=C/c1ccc(O)cc1 [Compound 1H, 3,4-dicoumaroylquinic acid] | 40 | 52 |  |  |  | 140 | 108 |  |  | IC50 (SceCet1; [4]): > 500 µM; IC50 (CthTTM; [5]): > 500 µM; IC50 (TbCet1; [6]): 1.3 µM
7 | O=C(/C=C/c1ccccc1)O[C@@H]1C[C@](OC(=O)/C=C/c2ccccc2)(C(=O)O)C[C@@H](OC(=O)/C=C/c2ccccc2)[C@H]1OC(=O)/C=C/c1ccccc1 [Compound 1I, tetracinnamoylquinic acid] | 11 |  |  |  | 11 | 6 | 4 | 17 | 1.6 | IC50 (SceCet1): > 500 µM; IC50 (CthTTM): 17 µM; fold less potent as TbCet1 inhibitor than tetracaffeoylquinic acid (compound 1A) (TbCet1): 120 fold
8 | COc1ccc(/C=C/C(=O)O[C@@H]2C[C@@](O)(C(=O)O)C[C@@H](O)[C@@H]2O)cc1O [Compound 1J, 5-p-feruoylquinic acid] |  |  | > 500 | > 500 |  |  |  |  |  | IC50 (TbCet1; [6]): 2.4 µM
9 | O=C(OC1[C@H](OC(=O)c2ccccc2)CC(OC(=O)c2ccccc2)(C(=O)O)C[C@H]1OC(=O)c1ccccc1)c1ccccc1 (stereo partly drawn) [Compound 1K] | 3 |  |  |  | 12 | 46 | 8 | 20 | 5.8 | IC50 (SceCet1): > 500 µM; IC50 (CthTTM): 72 µM
10 | COc1cc(/C=C/C(=O)O[C@@H]2C[C@](O)(C(=O)O)C[C@@H](O)[C@H]2O)ccc1O [Compound 1L, 5-feruoylquinic acid] |  |  | > 500 | > 500 |  | > 500 |  |  |  | IC50 (MimiCE; 7 nM MimiCE, 37°C, read-out: IC50 MimiCE): > 500 µM; IC50 (TbCet1; [6]): 12 µM
11 | O=C(/C=C/c1ccc(O)cc1)O[C@@H]1CC(O)(C(=O)O)C[C@@H](OC(=O)/C=C/c2ccc(O)cc2)C1O (stereo partly drawn) [Compound 1M, 3,5-dicoumaroylquinic acid] |  |  |  |  |  | > 500 |  | > 500 | 24 | IC50 (SceCet1): > 500 µM; IC50 (CthTTM): > 500 µM; fold drop in potency of TbCet1 inhibition versus 3,5-dicaffeoylquinic acid (compound 1B) (TbCet1): 340 fold
12 | O=C(/C=C/c1ccc(O)cc1)OC1[C@H](O)CC(O)(C(=O)O)C[C@H]1O (stereo partly drawn) [Compound 1N] |  |  | > 500 | > 500 |  | > 500 |  | > 500 | 25 | 
